Measured values as given in PubChem BioAssay AID1963425 (Molecular Pharmacology Branch, DTP, NCI, 2024).

Test system: 323965-272-R-J2-PDC complex spheroid growth, % test/control
Assay: Anticancer human tumor 323965-272-R-J2-PDC patient-derived pancreatic carcinoma cell line growth inhibition [Asc]
Conditions: for IC50: curve of first compound; for viability, T/C: stronger effect = lower value
Outline: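 Complex solid-tumor spheroids incorporating human endothelial and mesenchymal stem cells received single agents or combinations over half-log dilution ranges anchored to clinical Cmax.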

[1] = second compound 0.00949 µM, first compound 0.0316 µM
[2] = second compound 0.00949 µM, first compound 0.1 µM
[3] = second compound 0.00949 µM, first compound 0.316 µM
[4] = second compound 0.00949 µM, first compound 1 µM
[5] = second compound 0.00949 µM, first compound 3.16 µM
[6] = second compound 0.00949 µM, first compound 10 µM
[7] = second compound 0.03 µM, first compound 0.0316 µM
[8] = second compound 0.03 µM, first compound 0.1 µM
[9] = second compound 0.03 µM, first compound 0.316 µM
[10] = second compound 0.03 µM, first compound 1 µM
[11] = second compound 0.03 µM, first compound 3.16 µM
[12] = second compound 0.03 µM, first compound 10 µM
[13] = second compound 0.0949 µM, first compound 0.0316 µM
[14] = second compound 0.0949 µM, first compound 0.1 µM
[15] = second compound 0.0949 µM, first compound 0.316 µM
[16] = second compound 0.0949 µM, first compound 1 µM
[17] = second compound 0.0949 µM, first compound 3.16 µM
[18] = second compound 0.0949 µM, first compound 10 µM
[19] = second compound 0.3 µM, first compound 0.0316 µM
[20] = second compound 0.3 µM, first compound 0.1 µM
[21] = second compound 0.3 µM, first compound 0.316 µM
[22] = second compound 0.3 µM, first compound 1 µM
[23] = second compound 0.3 µM, first compound 3.16 µM
[24] = second compound 0.3 µM, first compound 10 µM
[25] = second compound 0.949 µM, first compound 0.0316 µM
[26] = second compound 0.949 µM, first compound 0.1 µM
[27] = second compound 0.949 µM, first compound 0.316 µM
[28] = second compound 0.949 µM, first compound 1 µM
[29] = second compound 0.949 µM, first compound 3.16 µM
[30] = second compound 0.949 µM, first compound 10 µM
[31] = second compound 3 µM, first compound 0.0316 µM
[32] = second compound 3 µM, first compound 0.1 µM
[33] = second compound 3 µM, first compound 0.316 µM
[34] = second compound 3 µM, first compound 1 µM
[35] = second compound 3 µM, first compound 3.16 µM
[36] = second compound 3 µM, first compound 10 µM
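Note: compound exposure lasted 7 days starting three days after spheroid seeding.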
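Throughout, for viability, T/C: 100% = DMSO vehicle control wells with viability set relative to vehicle.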

SMILES: C=C(F)C(=O)N1CCN(c2nc(OCC3CCCN3C)nc3c2CCN(c2cccc4cccc(Cl)c24)C3)CC1CC#N (stereo unspecified) + CCN1C(C(=O)NC23CCC(C(=O)O)(CC2)CC3)C(c2cccc(Cl)c2F)C2(C(=O)Nc3cc(Cl)ccc32)C12CCCCC2
- IC50 (second compound 0.00949 µM): > 10 µM
- IC50 (second compound 0.03 µM): 5.59 µM
- IC50 (second compound 0.0949 µM): 5.62 µM
- IC50 (second compound 0.3 µM): 5.79 µM
- IC50 (second compound 0.949 µM): 5.21 µM
- IC50 (second compound 3 µM): 4.67 µM
- viability, T/C [1]: 62.2%
- viability, T/C [2]: 64%
- viability, T/C [3]: 61.5%
- viability, T/C [4]: 58.6%
- viability, T/C [5]: 85.7%
- viability, T/C [6]: 32.8%
- viability, T/C [7]: 79%
- viability, T/C [8]: 65.3%
- viability, T/C [9]: 59.7%
- viability, T/C [10]: 61.2%
- viability, T/C [11]: 81.8%
- viability, T/C [12]: 30.2%
- viability, T/C [13]: 73.4%
- viability, T/C [14]: 60%
- viability, T/C [15]: 60.5%
- viability, T/C [16]: 63.7%
- viability, T/C [17]: 74.3%
- viability, T/C [18]: 33.5%
- viability, T/C [19]: 81.1%
- viability, T/C [20]: 64.4%
- viability, T/C [21]: 65%
- viability, T/C [22]: 66.3%
- viability, T/C [23]: 74.8%
- viability, T/C [24]: 31.8%
- viability, T/C [25]: 73.4%
- viability, T/C [26]: 65.9%
- viability, T/C [27]: 63.8%
- viability, T/C [28]: 62.7%
- viability, T/C [29]: 83.8%
- viability, T/C [30]: 24.1%
- viability, T/C [31]: 70.7%
- viability, T/C [32]: 57%
- viability, T/C [33]: 61%
- viability, T/C [34]: 71.9%
- viability, T/C [35]: 82.3%
- viability, T/C [36]: 13.8%

SMILES: C=CC(=O)N1CCN(c2nc(=O)n(-c3c(C)ccnc3C(C)C)c3nc(-c4c(O)cccc4F)c(F)cc23)C(C)C1 (stereo unspecified) + CCN1C(C(=O)NC23CCC(C(=O)O)(CC2)CC3)C(c2cccc(Cl)c2F)C2(C(=O)Nc3cc(Cl)ccc32)C12CCCCC2
- IC50 (second compound 0.00949 µM): > 10 µM
- IC50 (second compound 0.03 µM): > 10 µM
- IC50 (second compound 0.0949 µM): > 10 µM
- IC50 (second compound 0.3 µM): > 10 µM
- IC50 (second compound 0.949 µM): > 10 µM
- IC50 (second compound 3 µM): > 10 µM
- viability, T/C [1]: 82%
- viability, T/C [2]: 73.5%
- viability, T/C [3]: 60.5%
- viability, T/C [4]: 64.8%
- viability, T/C [5]: 68.7%
- viability, T/C [6]: 59.1%
- viability, T/C [7]: 75.4%
- viability, T/C [8]: 70.1%
- viability, T/C [9]: 68.7%
- viability, T/C [10]: 68.7%
- viability, T/C [11]: 65.8%
- viability, T/C [12]: 65.6%
- viability, T/C [13]: 80.7%
- viability, T/C [14]: 67.2%
- viability, T/C [15]: 62.8%
- viability, T/C [16]: 73%
- viability, T/C [17]: 66.2%
- viability, T/C [18]: 61.8%
- viability, T/C [19]: 75.1%
- viability, T/C [20]: 73.2%
- viability, T/C [21]: 65.6%
- viability, T/C [22]: 60.9%
- viability, T/C [23]: 67.7%
- viability, T/C [24]: 63.2%
- viability, T/C [25]: 84.7%
- viability, T/C [26]: 68.3%
- viability, T/C [27]: 62.8%
- viability, T/C [28]: 69.8%
- viability, T/C [29]: 73.7%
- viability, T/C [30]: 61.7%
- viability, T/C [31]: 79.3%
- viability, T/C [32]: 71.5%
- viability, T/C [33]: 61%
- viability, T/C [34]: 68.1%
- viability, T/C [35]: 65.8%
- viability, T/C [36]: 58.6%

SMILES: COc1c(OCCCN2CCOCC2)ccc2c3n(c(=NC(=O)c4cnc(N)nc4)nc12)CCN3 + CCN1C(C(=O)NC23CCC(C(=O)O)(CC2)CC3)C(c2cccc(Cl)c2F)C2(C(=O)Nc3cc(Cl)ccc32)C12CCCCC2
- IC50 (second compound 0.00949 µM): 0.151 µM
- IC50 (second compound 0.03 µM): 0.13 µM
- IC50 (second compound 0.0949 µM): 0.13 µM
- IC50 (second compound 0.3 µM): 0.133 µM
- IC50 (second compound 0.949 µM): 0.138 µM
- IC50 (second compound 3 µM): 0.102 µM
- viability, T/C (second compound 0.00949 µM, first compound 0.00316 µM): 96%
- viability, T/C (second compound 0.00949 µM, first compound 0.01 µM): 97.7%
- viability, T/C [1]: 70.7%
- viability, T/C [2]: 62.5%
- viability, T/C [3]: 34.2%
- viability, T/C [4]: 25.7%
- viability, T/C (second compound 0.03 µM, first compound 0.00316 µM): 103%
- viability, T/C (second compound 0.03 µM, first compound 0.01 µM): 96.4%
- viability, T/C [7]: 73.3%
- viability, T/C [8]: 52.2%
- viability, T/C [9]: 42.2%
- viability, T/C [10]: 30.4%
- viability, T/C (second compound 0.0949 µM, first compound 0.00316 µM): 97%
- viability, T/C (second compound 0.0949 µM, first compound 0.01 µM): 85.6%
- viability, T/C [13]: 78.5%
- viability, T/C [14]: 50.7%
- viability, T/C [15]: 38.4%
- viability, T/C [16]: 25.5%
- viability, T/C (second compound 0.3 µM, first compound 0.00316 µM): 101%
- viability, T/C (second compound 0.3 µM, first compound 0.01 µM): 89.2%
- viability, T/C [19]: 69.8%
- viability, T/C [20]: 56.3%
- viability, T/C [21]: 36.6%
- viability, T/C [22]: 27.6%
- viability, T/C (second compound 0.949 µM, first compound 0.00316 µM): 99.7%
- viability, T/C (second compound 0.949 µM, first compound 0.01 µM): 82.7%
- viability, T/C [25]: 70.3%
- viability, T/C [26]: 51%
- viability, T/C [27]: 42.3%
- viability, T/C [28]: 30.1%
- viability, T/C (second compound 3 µM, first compound 0.00316 µM): 89.4%
- viability, T/C (second compound 3 µM, first compound 0.01 µM): 82.4%
- viability, T/C [31]: 63.9%
- viability, T/C [32]: 49.6%
- viability, T/C [33]: 38.5%
- viability, T/C [34]: 26%
